Key:
[1] = test system: live APC (spleenocytes) from NOD (I-A^g7), BALB/c, A.SW, A.BY mice; test: Flow cytometry of biotinylated peptide binding to live APC (spleenocytes) of inbred mouse strains; details: biotinylated peptide, live spleenocytes, flow cytometry
Method: Specifically, it was verified that the peptide binds to MHC molecules on live APC. Briefly, spleen cell density-gradient fractions (from mice), or PBL, or APC lines (from humans) were incubated in round bottom 96-well plates with increasing concentrations of individual biotinylated peptides at 37° C., 5% CO2 for 16 hours. Following binding of the BPI to the APC, Avidin-FITC was incubated with the cells on ice for 30 minutes, followed by biotinylated anti-Avidin for 1 hour, then again with Avidin-FITC. For BPI titrations, increasing concentrations (0.1-100 μM) of the biotinylated derivatives in sterile 0.5% BSA-PBS were incubated with the APC for 16 hours as above. […] Three-color analyses used Cy-Chrome or PE-conjugated antibodies to known surface markers of APC that were commercially available. Avidin-FITC and biotinylated anti-Avidin detection of the bound peptide was as previously described in Murray et al., 24 Eur. J. Immunol. 2337-2344 (1994); Murray; 19 Immunology Today 157-163; and Schountz et al., 157 The Journal of Immunology 3893-3901 (1996). Slight modifications of this method were used to test peptide inhibition (i.e., peptide affinity) and co-capping to the MHC and ICAM molecules directly on the live APC surface. […] Unlabeled peptide was used in a competition assay to derive the relative affinity of the BPI for the APC and the ability of the BPI to crosslink the MHC and ICAM molecules on the APC was examined by cocapping ICAM with an anti-MHC mAb. Here, cells were incubated with the BPI. Next, an anti-MHC mAb was added. After 30 minutes at 37° C., the cells were transferred to ice and stained with PE-labeled anti-ICAM (FIG. 7).
To obtain biotinylated BPI, the synthesized EGAD BPI was biotinylated with NHS-Biotin as described in Murray et al., 24 Eur. J. Immunol. 2337-2344 (1994). Spleen cell density-gradient fractions from normal (unimmunized) NOD, BALB/c and other MHC congenic strains were incubated in round bottom 96-well plates with increasing concentrations of individual biotinylated peptides at 37° C., 5% CO2 for 16 hours. Following binding of the BPI to the APC, Avidin-FITC was incubated with the cells on ice for 30 minutes, followed bybiotinylated anti-Avidin for 1 hour, then again with Avidin-FITC. For BPI titrations, increasing concentrations (0.1-100 μM) of the biotinylated derivatives in sterile 0.5% BSA-PBS were incubated with the APC for 16 hours as above. Three-color analyses used Cy-Chrome or PE-conjugated anti-B220 (mAb RA3-6B2 (CD45R B-cell marker), anti-MHC class II (KH74 or 10-3.62 mAb), or anti-ICAM-1 (3E2 mAb); (all purchased from PharMingen, San Diego, Calif.). Bound peptide was detected with avidin-FITC/biotinylated anti-avidin/avidin-FITC on live cells gated by forward/side scatter analysis. Controls contained all detecting reagents in absence of the biotinylated peptide; 20,000 events were analyzed for each histogram with a FACScan (Becton-Dickinson) flow cytometer.
To verify antigenic peptide binding to live APC, initial EGAD-BPI were screened for selective binding to NOD (I-A^g7) APC and assayed for simultaneous binding using monoclonal antibodies against either MHC-II or ICAM-1 by flow cytometry methods using live APC (Murray et al., 24 Eur. J. Immunol. 2337-2344 (1994); Murray; 19 Immunology Today 157-163; and Schountz et al., 157 The Journal of Immunology 3893-3901 (1996)). In this assay, increasing concentrations of the biotinylated-BPI, -CD11a(237-247) or -GAD65(208-217) peptide were incubated overnight with spleenocytes from each inbred strain. Bound peptide was detected with amplification of avidin-FITC fluorescence by the use of a biotinylated anti-avidin reagent, followed by a second round of avidin-FITC binding. Biotinylated peptide was incubated with 10^6 viable cells at a peptide concentrations of 50 μM. Bound peptide was detected with avidin-FITC/biotinylated anti-avidin-FITC. […]

[2] = test system: NOD mice; test: Lymphocytic infiltration of pancreatic islets (insulitis) in NOD mice, histological scoring; type: in vivo, mouse; details: NOD males; for intact / normal islets without infiltration (grade-0 islets), percentage of islets examined: GAD65 peptide in CFA, two i.v. injections of 40 nanomoles
Excerpt: To evaluate the disease process by immunohistology (see, e.g., FIG. 12A-D), spleen, pancreas, or other target organs, e.g., the CNS for the MDP peptide BPI, or lung for the RSV peptide BPI, were removed from euthanized mice of each group and prepared for histology by fixing in neutral buffered formalin and embedding in paraffin, or snap frozen in O.C.T. medium. For scoring inflammation, minimums of five sections from each mouse were used to assess the blocking affect of a given BPI. For characterization of standard T-cell markers on cellular infiltrates, biotinylated mAb to various cell surface antigens will be incubated individually with the Cryostat sections (2 hours), followed by avidin-alkaline phosphatase (Vector laboratories). Alternatively, cell subsets will be phenotyped by standard flow cytometry methods as described in Murray et al., 24 Eur. J. Immunol. 2337-2344 (1994); Murray; 19 Immunology Today 157-163; and Schountz et al., 157 The Journal of Immunology 3893-3901 (1996). Finally, the students t-test or ANOVA will be used to estimate the statistical significance of differences observed between groups and individual mice.
These studies sought to confirm that the BPI containing the immunodominant GAD65 TCR epitope (EGAD-BPI) was biologically active in vivo and inhibited the development of pancreatic inflammation. Groups of three normal glycemic NOD males (8 weeks old) were immunized with the GAD65 (208-217) peptide in CFA as described in Example 4. The control group received PBS, and separate experimental groups received either the EGAD-BPI, the GAD peptide alone (i.e., the T-cell receptor epitope), or the CD11a peptide alone(i.e., the second signal receptor moiety) by two intravenous injections as described in Example 4. On day 10, the pancreata were removed to 10% PBS-buffered formalin, embedded in paraffin, and five-micron serial sections were examined histologically for mononuclear cell infiltration as previously described by Yoon, et al., Control of Autoimmune Diabetes in NOD Mice by GAD Expression or Suppression in β Cells, 284 Science 1183-1187 (1999), the entirety of which is hereby incorporated by reference.

Sequence	preferential binding to NOD APC compared with other strains (BALB/c, A.SW, A.BY) [1]	preferential binding to NOD APC compared with other strains (BALB/c, A.SW, A.BY) ([1]; listed as LFA-1 (CD11a 237-247) peptide)	preferential binding to NOD APC compared with other strains (BALB/c, A.SW, A.BY) ([1]; listed as LFA-1 moiety)	intact / normal islets without infiltration (grade-0 islets), percentage of islets examined ([2]; day 10) [%]	preferential binding to NOD APC compared with other strains (BALB/c, A.SW, A.BY) ([1]; listed as GAD 65 moiety)	mononuclear cell infiltration of islets (insulitis), in words ([2]; day 10, histology)	islets scored grade 2 or above ([2]; two i.v. injections, day 10) [%]
ITDGEATDSG (listed as Homo sapiens) [CD11a peptide, Signal-2 moiety (second signal receptor moiety) of EGAD-BPI, tested alone as control]	did not bind preferentially to NOD APC	bound similarly to all strain spleenocytes	did not display this increased binding	66.7	–	–	–
EIAPVFVLLE (listed as Homo sapiens) [GAD65 peptide, reference compound]	did not bind preferentially to NOD APC	–	–	62	did not display this increased binding	showed the most insulitis	37.5
